Numbers after ± are expanded uncertainties.
Columns and labels:
[1] = 298.15 K; 101.33 kPa; Liquid; Vibrating tube method
[2] = refractive index (Na D-line) (dimensionless); details: 298.15 K; 101.33 kPa; Liquid; Standard Abbe refractometry

Row | Structure (SMILES) | mass density [1] [kg/m3] | refractive index [2]
1 | CCn1cc[n+](C)c1.N#CN=C=[N-] [1-ethyl-3-methylimidazolium dicyanamide] | 1102.03 ± 1.1 | 1.51452 ± 0.00051
2 | CCCCCCC [heptane] | 679.57 ± 0.25 | 1.38529 ± 0.00037
3 | Cc1ccccc1 [toluene] | 862.23 ± 0.13 | 1.49398 ± 0.00031
4 | C1CCCCC1 [cyclohexane] | 773.88 ± 0.17 | 1.42356 ± 0.00033
